{"source": "patent US20260215432A1", "about": "“ANTIMICROBIAL CONJUGATED OLIGOELECTROLYTES AND METHODS THEREOF” (National University of Singapore, priority 2023, published 2026)", "key": {"SA": {"test_system": "SA", "test": "MIC in physiological-mimicking environments (MHB)", "format": "cell-based, S. aureus", "description": "(§1) The complexities of the physiological environment often influence drug activity, particularly when cations in solution are implicated in their oligomerization-dependent mechanisms of action, such as for daptomycin. Binding of free drug to plasma proteins effectively reduces the available free concentration of the drug capable of killing bacteria, resulting in lower observable activity. We tested MIC values of DM4P and DM6P in the presence of human serum albumin (40 g L^−1) and high salt concentrations (Table 4). Under these conditions, the antimicrobial activity was minimally affected by these environmental factors, with MICs remaining within a 2-fold level."}, "MRSA [1]": {"test_system": "MRSA", "test": "S. aureus murine wound infection model", "format": "in vivo, mice", "settings": "0.05 mg/kg, MRSA-inoculated mouse wound, 24 hours", "description": "To probe the potential of TPP-COEs as viable therapeutics, we assessed the efficacy of DM6P to treat bacterial infections in vivo. An S. aureus murine wound infection model was used due to prevalent clinical concerns associated with S. aureus skin and soft tissue infections (SSTIs). […] Relative to current clinical dosages of 4-6 mg/kg for daptomycin, the low concentrations required to achieve such activity in vivo and absence of bacterial regrowth after 24 hours underscores the potential for further developing TPP-COEs with improved activity and safety profiles.\nAnimal experiments were approved by the Institutional Animal Care and Use Committee (IACUC), National University of Singapore (R20-1178) and carried out in line with procedures in the Guide for the Care and Use of Laboratory Animals (National Institutes of Health). C57BL6 mice (female, 18-20 g) were anaesthetized by ketamine and the hair at the back were shaved and removed. A 6 mm-diameter excisional wound was created on the back using a biopsy punch. Log phase MRSA (in 5 μl PBS) were inoculated onto the wound. A 3M tegaderm were used to cover the wound site from contamination. […] Significant levels were evaluated by a one-way ANOVA followed by a multiple comparison analysis of variance by a one-way Tukey test (Graphpad PRISM)."}, "[2]": {"settings": "phosphate-buffered saline; below 10 μg mL^−1 estimated by turbidimetric screening", "experimental": "The solubility of all the TPP derivatives was determined in phosphate-buffered saline (PBS) (Table S3)."}, "MRSA [3]": {"test_system": "MRSA", "test": "Propidium iodide influx assay", "format": "cell-based, S. aureus", "settings": "0.5 to 2 μg mL^−1 (half to twice the MIC)", "description": "(§2) Another hallmark of cytoplasmic membrane damage is an enhanced permeability towards small molecules. Propidium iodide (PI) is a membrane-impermeant organic dye that can be used to study potential mechanisms of action of antibiotics due to its enhanced fluorescence intensity upon binding to intracellular DNA. Treatment with molecules that cause membrane perturbations enable rapid influx of the dye, resulting in an increase in fluorescence emission that can be monitored over time. […] This difference hints at two plausible mechanisms of action that are concentration dependent. Similar observations have been made for tobramycin, where a protein inhibition mode of action at lower concentrations (<4 μg mL^−1) is supplanted by disruption of the outer membrane at higher concentrations (8 μg mL^−1).\n(§3) The assay was performed according to a modified reported protocol.^4 Briefly, the corresponding bacteria was collected from mid-log cultures by centrifugation (7000 rpm, 10 minutes) and washed thrice with PBS. The pellet was then resuspended in the same buffer and diluted to an optical density of 2 by extrapolation. […] Fluorescence intensity was measured over time in a plate reader with an excitation wavelength of 525 nm and emission wavelength of 620 nm. Fluorescence signals were measured every 30 seconds and carried out in triplicate."}, "P. aeruginosa": {"test_system": "P. aeruginosa", "test": "Resistance development by serial passaging at 0.5× MIC", "format": "cell-based", "description": "The non-specific action of membrane-active antibiotics lends itself to minimal development of resistance development due to the large metabolic burden involved, unlike traditional antibiotics with a well-defined enzymatic target. Based on this premise, we passaged bacteria incubated with DM6P, or ciprofloxacin (control), at 0.5× MIC to investigate the adaptation of bacteria towards external antibiotic stress. As a control, treatment of MRSA with ciprofloxacin gave rise to antibiotic-resistant mutants within 4 passages, see FIG. 4a. […] Combined with its broad spectrum of activity, this feature opens opportunities for the use of COE antimicrobial agents to address polymicrobial infections with a lower rate of emerging antibiotic resistance."}, "PA": {"test_system": "PA", "test": "MIC in physiological-mimicking environments (MHB)", "format": "cell-based, P. aeruginosa", "description": "as §1"}, "PAO1": {"test_system": "PAO1", "test": "Propidium iodide influx assay", "format": "cell-based, P. aeruginosa", "settings": "PAO1, 2 to 8 μg mL^−1 (half to twice the MIC)", "description": "as §2, §3"}, "[4]": {"test_system": "M. abscesses (ATCC 19977)", "test": "MIC against mycobacterium in Middlebrook 7H9 broth", "format": "cell-based, M. abscessus", "description": "We also examined non-tuberculous mycobacteria (NTM). These are opportunistic pathogens that are rising in clinical significance due to their increasing prevalence and treatment difficulty. The membrane of Mycobacterium is inherently a greater antibiotic permeability barrier due to its high lipid content relative to other pathogens and long-tailed mycolic acids that contributed to its high lipophilic character. The antimicrobial activity of the TPP analogues were also evaluated against Mycobacterium in Middlebrook 7H9 broth."}, "[5]": {"test_system": "A549 (lung epithelial cells)", "test": "Cytotoxicity against mammalian cell line", "format": "cell-based", "description": "The cytotoxicity of the TPP COEs was also tested against a mammalian cell line (A549)."}, "[6]": {"settings": "mice", "experimental": "At the end-point, mice were sacrificed and the individual organs and blood samples were collected. Tissues were fixed in 10% neutral-buffered formalin (NBF) for 48 hours and subjected to H&E staining and examination. Clinical blood biomarkers were analysed with a Pointcare® cM4 Blood Chemistry Analyzer (Tianjin MNCHIP Technologies Co., Ltd) according to the manufacturer's protocol."}, "[7]": {"settings": "0.25 mg kg^−1, blood after 14 days, mean ± s.d. (n = 3)"}}, "data": [{"smiles": "COc1cc(/C=C/c2ccc(OCCCCCC[P+](c3ccccc3)(c3ccccc3)c3ccccc3)c(OC)c2)ccc1OCCCCCC[P+](c1ccccc1)(c1ccccc1)c1ccccc1.[I-].[I-]", "note": "[DM6P]", "values": [{"measurement": "MIC CaCl2", "setting": "SA; CaCl2 1 mM", "result": 1, "unit": "µg/mL"}, {"measurement": "MIC MgCl2", "setting": "SA; MgCl2 1.25mM", "result": 1, "unit": "µg/mL"}, {"measurement": "MIC NaCl", "setting": "SA; NaCl 300 mM", "result": 1, "unit": "µg/mL"}, {"measurement": "MIC HSA", "setting": "SA; human serum albumin 40 g L^−1", "result": 1, "unit": "µg/mL"}, {"measurement": "MIC —", "setting": "SA; no additive", "result": 1, "unit": "µg/mL"}, {"measurement": "reduction in bacterial load compared to the saline-treated group", "setting": "MRSA [1]", "result": 3.8, "unit": "log fold"}, {"measurement": "solubility in PBS", "setting": "[2]", "result": 108, "unit": "µg/mL"}, {"measurement": "PI influx", "setting": "MRSA [3]", "result": "PI influx was observed at 2×MIC"}, {"measurement": "resistance development", "setting": "P. aeruginosa", "result": "did not induce any observable resistant mutants"}, {"measurement": "MIC CaCl2", "setting": "PA; CaCl2 1 mM", "result": 4, "unit": "µg/mL"}, {"measurement": "MIC MgCl2", "setting": "PA; MgCl2 1.25mM", "result": 4, "unit": "µg/mL"}, {"measurement": "MIC NaCl", "setting": "PA; NaCl 300 mM", "result": 8, "unit": "µg/mL"}, {"measurement": "MIC HSA", "setting": "PA; human serum albumin 40 g L^−1", "result": 8, "unit": "µg/mL"}, {"measurement": "MIC —", "setting": "PA; no additive", "result": 4, "unit": "µg/mL"}, {"measurement": "PI influx", "setting": "PAO1", "result": "increase in PI influx appeared to be independent of concentration"}, {"measurement": "MIC M. abscesses", "setting": "[4]", "result": 8, "unit": "µg/mL"}, {"measurement": "IC50", "setting": "[5]", "result": 11, "unit": "µg/mL"}, {"measurement": "ALB (albumin)", "setting": "[6]; [7]", "result": "30 ± 3.3", "unit": "g/L"}, {"measurement": "ALT (alanine transaminase)", "setting": "[6]; [7]", "result": "38.7 ± 4.1", "unit": "U/L"}, {"measurement": "AST (aspartate aminotransferase)", "setting": "[6]; [7]", "result": "205 ± 50.7", "unit": "U/L"}, {"measurement": "BUN (blood urea nitrogen)", "setting": "[6]; [7]", "result": "6.7 ± 0.3", "unit": "mM"}, {"measurement": "CRE", "setting": "[6]; [7]", "result": "63.7 ± 10.1", "unit": "µM"}, {"measurement": "GGT (gamma-glutamyl transferase)", "setting": "[6]; [7]", "result": "0.6 ± 0.1", "unit": "U/L"}, {"measurement": "GLO (globulin)", "setting": "[6]; [7]", "result": "18.6 ± 1.5", "unit": "g/L"}, {"measurement": "TBIL (total bilirubin)", "setting": "[6]; [7]", "result": "2.9 ± 0.5", "unit": "µM"}, {"measurement": "TP (total protein)", "setting": "[6]; [7]", "result": "48.6 ± 1.9", "unit": "g/L"}, {"measurement": "blood biomarker levels compared to saline-treated controls", "setting": "[6]; 0.25 mg/kg, after 14 days", "result": "no significant difference"}, {"measurement": "H&E staining of the major organs", "setting": "[6]; DM6P treated, 14 days post-treatment", "result": "did not reveal any abnormal signs"}]}]}
